Experimental data reported in ChEMBL document CHEMBL2146374, “Fused heterocyclic compounds as ion channel modulators: patent highlight” (ACS Med Chem Lett, 2012).

Molecular target: Nav1.5 (sodium channel protein type 5 subunit alpha) (Homo sapiens, UniProt Q14524)
Experiment: Inhibition of human Nav1.5 expressed in HEK293 cells at 1 uM by whole cell patch clamp assay
Type: cell-based
Settings: HEK293 cells that express human Nav1.5

Sequence of Nav1.5 (sodium channel protein type 5 subunit alpha) (Q14524 whole entry): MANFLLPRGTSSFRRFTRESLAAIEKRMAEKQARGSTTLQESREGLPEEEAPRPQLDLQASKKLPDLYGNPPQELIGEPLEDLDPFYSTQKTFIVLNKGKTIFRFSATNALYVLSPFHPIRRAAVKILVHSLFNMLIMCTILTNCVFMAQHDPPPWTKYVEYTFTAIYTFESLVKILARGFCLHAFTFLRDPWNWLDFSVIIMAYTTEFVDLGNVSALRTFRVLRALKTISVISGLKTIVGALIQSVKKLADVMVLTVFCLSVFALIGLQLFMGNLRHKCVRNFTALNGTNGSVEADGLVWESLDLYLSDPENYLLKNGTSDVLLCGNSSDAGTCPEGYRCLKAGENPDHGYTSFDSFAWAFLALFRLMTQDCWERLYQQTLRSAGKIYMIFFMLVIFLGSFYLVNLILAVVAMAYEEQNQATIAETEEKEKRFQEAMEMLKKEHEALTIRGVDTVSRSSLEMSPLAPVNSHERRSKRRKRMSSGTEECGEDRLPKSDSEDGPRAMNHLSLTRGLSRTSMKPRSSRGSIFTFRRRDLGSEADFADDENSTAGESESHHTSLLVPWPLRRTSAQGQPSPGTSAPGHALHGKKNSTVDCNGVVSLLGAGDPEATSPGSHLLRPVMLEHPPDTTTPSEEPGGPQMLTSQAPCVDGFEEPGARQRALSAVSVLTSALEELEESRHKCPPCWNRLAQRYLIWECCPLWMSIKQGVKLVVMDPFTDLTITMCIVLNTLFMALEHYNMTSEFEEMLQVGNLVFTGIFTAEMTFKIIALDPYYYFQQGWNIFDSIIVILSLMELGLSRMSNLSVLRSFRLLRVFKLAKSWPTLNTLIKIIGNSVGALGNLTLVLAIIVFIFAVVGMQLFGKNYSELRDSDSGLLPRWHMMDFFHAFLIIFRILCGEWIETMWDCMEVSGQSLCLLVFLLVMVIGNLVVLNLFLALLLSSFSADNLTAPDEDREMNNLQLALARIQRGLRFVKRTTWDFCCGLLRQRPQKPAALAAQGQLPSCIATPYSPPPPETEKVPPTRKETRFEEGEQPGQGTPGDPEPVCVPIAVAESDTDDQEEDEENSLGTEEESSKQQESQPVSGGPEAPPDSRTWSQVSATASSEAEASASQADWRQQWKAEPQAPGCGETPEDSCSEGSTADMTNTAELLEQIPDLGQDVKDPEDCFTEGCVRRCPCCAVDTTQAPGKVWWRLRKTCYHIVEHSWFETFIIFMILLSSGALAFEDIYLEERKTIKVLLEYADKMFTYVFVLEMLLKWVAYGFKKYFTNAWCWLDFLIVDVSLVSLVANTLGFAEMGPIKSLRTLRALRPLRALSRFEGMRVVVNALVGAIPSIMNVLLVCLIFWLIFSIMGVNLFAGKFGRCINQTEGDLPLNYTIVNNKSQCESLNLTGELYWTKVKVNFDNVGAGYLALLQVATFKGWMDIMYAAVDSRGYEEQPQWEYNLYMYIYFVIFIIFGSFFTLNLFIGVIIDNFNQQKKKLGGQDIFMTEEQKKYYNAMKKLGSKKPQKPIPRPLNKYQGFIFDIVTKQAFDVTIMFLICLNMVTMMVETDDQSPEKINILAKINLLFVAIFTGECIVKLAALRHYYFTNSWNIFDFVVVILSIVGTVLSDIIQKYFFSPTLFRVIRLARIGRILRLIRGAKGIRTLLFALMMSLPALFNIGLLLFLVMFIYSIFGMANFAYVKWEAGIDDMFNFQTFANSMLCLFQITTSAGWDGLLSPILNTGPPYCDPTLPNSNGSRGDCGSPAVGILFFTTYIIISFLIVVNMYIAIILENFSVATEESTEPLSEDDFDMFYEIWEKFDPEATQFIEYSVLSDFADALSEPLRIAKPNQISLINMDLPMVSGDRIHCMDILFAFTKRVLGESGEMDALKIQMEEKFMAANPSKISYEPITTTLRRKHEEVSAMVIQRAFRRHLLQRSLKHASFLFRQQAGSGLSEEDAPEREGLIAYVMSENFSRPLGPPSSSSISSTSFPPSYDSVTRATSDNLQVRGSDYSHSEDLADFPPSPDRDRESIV

| Compound | inhibition at 1 µM [%] |
| --- | --- |
| Cc1nc(Cn2nc3ccc(-c4ccc(Oc5ccc(Cl)cc5)cc4)cn3c2=O)no1 | 68.4 |
| COc1ccccc1OCC(Cn1nc2ccc(-c3ccc(OC(F)(F)F)cc3)cn2c1=O)OC (centres undefined) | 55 |
| Cc1noc(Cn2nc3ccc(-c4ccc(Oc5ccc(Cl)cc5)cc4)cn3c2=O)n1 | 55.8 |
| Cc1noc(Cn2nc3ccc(-c4ccc(Oc5ccc(F)cc5)cc4)cn3c2=O)n1 | 71.2 |
